The results in this text go back to PubChem BioAssay (NCI).

Some test systems named below: DMS 273 small cell lung; DMS 114 small cell lung; LXFL 529 NSCLC; HOP-18 NSCLC; M19-MEL melanoma; SNB-78 CNS; DLD-1 colon; RXF-631 renal; P388 leukemia; SN12K1 renal; P388/ADR leukemia.
Common to all, as to assay: NCI tumour cell line growth inhibition, 48 h

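Step 1: Grow cells in 96-well plates. Step 2: Expose to compound for 48 hours at 5 concentrations. Step 3: Interpolate endpoints linearly; if unreached, use highest concentration. At the TGI there is no net growth.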

On to `COc1ccc(/C(Cl)=C/c2cc(OC)ccc2OC)cc1`, for which the TGI with DMS 273 small cell lung, in the test with DMS 114 small cell lung, in the test on LXFL 529 NSCLC, with HOP-18 NSCLC, in the test on M19-MEL melanoma and with SNB-78 CNS was greater than 100 µM throughout. In the test on DLD-1 colon, this compound yielded a TGI greater than 100 µM.

As for `CN(C)CCCNc1ccc2nnn3c4ccc(O)cc4c(=O)c1c23`, the TGI was 23.1 µM with DMS 114 small cell lung; 20.1 µM with LXFL 529 NSCLC; 29.1 µM in the test with HOP-18 NSCLC; 25.6 µM in the test on M19-MEL melanoma; 20.7 µM in the test with SNB-78 CNS; 18.1 µM in the test on DLD-1 colon.

As for `O=C1c2c(O)cccc2-c2nn(CCNCCO)c3ccc(NCCNCCO)c1c23`, the TGI in the test on DMS 273 small cell lung came out at 2.54 µM; with DMS 114 small cell lung, 0.178 µM; in the test with LXFL 529 NSCLC it was 1.14 µM; with HOP-18 NSCLC it was 5.41 µM; with M19-MEL melanoma, 1.15 µM; with RXF-631 renal it was 5.54 µM. In addition, the TGI with SNB-78 CNS was 5.99 µM; in the test on DLD-1 colon, greater than 41.3 µM.

With `CC1=NN(C(=O)c2ccc(Cl)cc2)C(=O)/C1=C/c1ccccc1O`, the TGI in the test on DMS 114 small cell lung, in the test with LXFL 529 NSCLC, in the test on M19-MEL melanoma, in the test on SNB-78 CNS and in the test on DLD-1 colon was greater than 100 µM throughout.

In the case of `CN=C(/N=c1\ssc(=NC)n1C)N(C)C`, the TGI in the test on DMS 273 small cell lung, in the test with DMS 114 small cell lung, in the test with LXFL 529 NSCLC, with HOP-18 NSCLC, with M19-MEL melanoma and with RXF-631 renal was greater than 100 µM in each case. In the test on DLD-1 colon, this compound registered a TGI greater than 100 µM.

For the compound `CC1=C2C(=CO[C@H](C)[C@H]2C)C(=O)C(C(=O)O)=C1O`, the TGI with DMS 273 small cell lung was 123 µM; with P388 leukemia, 500 µM; in the test on DMS 114 small cell lung, 30 µM; in the test on HOP-18 NSCLC it was 57.9 µM; in the test on M19-MEL melanoma, 79.1 µM; with SNB-78 CNS, 82.8 µM. The TGI in the test on DLD-1 colon was determined as 66.9 µM; in the test with SN12K1 renal it was 42 µM; in the test with P388/ADR leukemia, 67.7 µM.

For the compound `COc1cccc(C=O)c1[O-].[O]=[U](=[O])([OH2+])[OH2+]`, the TGI in the test with DMS 273 small cell lung is greater than 100 µM; in the test on DMS 114 small cell lung it was greater than 100 µM; with LXFL 529 NSCLC it was greater than 100 µM; with HOP-18 NSCLC it was 88.9 µM; in the test with M19-MEL melanoma, greater than 100 µM; with SNB-78 CNS it was greater than 100 µM. In the test with DLD-1 colon, this compound registered a TGI greater than 100 µM.

For the compound `NCc1cccc(O)c1O`, the TGI in the test on DMS 273 small cell lung, in the test with DMS 114 small cell lung, with LXFL 529 NSCLC, in the test with HOP-18 NSCLC, in the test with M19-MEL melanoma and with RXF-631 renal was greater than 100 µM each time. Also, the TGI in the test with SNB-78 CNS and in the test with DLD-1 colon was greater than 100 µM in each case.

Take `O=C1C=CC(=O)c2c(O)c(NCCOCCO)c(Cl)c(O)c21`: the TGI with DMS 273 small cell lung turned out to be 14.8 µM; with LXFL 529 NSCLC, 20.4 µM; with HOP-18 NSCLC it was 29.1 µM; in the test with M19-MEL melanoma, 3.22 µM; with SNB-78 CNS, 30.2 µM; in the test on DLD-1 colon, 5.51 µM.
